ChEMBL document CHEMBL1201862, “PubChem BioAssay data set” (2004)
Structures can show the parent of a compound that is named as a salt. Calls of active or inactive are those of the source.

Assays:
Cysteine protease ATG4B = target: T1, Cysteine protease ATG4B (Homo sapiens, UniProt Q9Y4P1); assay type: functional;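 also: Fluorescence-based dose-response confirmation assay measuring inhibition of ATG4B activity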
T1 sequence (Q9Y4P1 whole entry): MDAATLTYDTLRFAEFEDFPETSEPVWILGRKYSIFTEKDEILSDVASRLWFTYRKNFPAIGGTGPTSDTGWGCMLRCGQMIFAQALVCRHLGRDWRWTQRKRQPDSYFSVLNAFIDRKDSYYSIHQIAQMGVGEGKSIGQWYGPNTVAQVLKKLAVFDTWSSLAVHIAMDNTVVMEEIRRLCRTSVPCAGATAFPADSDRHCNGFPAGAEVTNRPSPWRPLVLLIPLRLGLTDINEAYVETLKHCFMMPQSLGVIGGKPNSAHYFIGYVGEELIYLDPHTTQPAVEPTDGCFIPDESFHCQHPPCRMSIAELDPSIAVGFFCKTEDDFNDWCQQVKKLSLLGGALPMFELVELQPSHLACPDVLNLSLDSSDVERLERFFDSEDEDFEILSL

Phospholipase A2 = Phospholipase A2 (Homo sapiens, UniProt P04054); assay type: functional;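 also: confirmatory dose-response counterscreen on phospholipase A2, testing hits that came from an ultra-high-throughput screen for ATG4B inhibitors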
[1] = Counterscreen for […] of the human trace amine associated receptor 1 (TAAR1): Fluorescence-based cell-based high throughput dose response assay to identify nonselective Ga16 agonists.; assay type: functional
[2] = Counterscreen for antagonists of the human trace amine associated receptor 1 (hTAAR1): Fluorescence-based cell-based high throughput dose response assay to identify nonselective Ga16 antagonists.; assay type: functional
[3] = target: T2, High affinity choline transporter 1 (Homo sapiens, UniProt Q9GZV3); experiment: human choline transporter blockers, potency – cell-based, 5-point CRC, membrane potential dye, dose response (AID 504840); assay type: functional
T2 sequence (Q9GZV3 whole entry): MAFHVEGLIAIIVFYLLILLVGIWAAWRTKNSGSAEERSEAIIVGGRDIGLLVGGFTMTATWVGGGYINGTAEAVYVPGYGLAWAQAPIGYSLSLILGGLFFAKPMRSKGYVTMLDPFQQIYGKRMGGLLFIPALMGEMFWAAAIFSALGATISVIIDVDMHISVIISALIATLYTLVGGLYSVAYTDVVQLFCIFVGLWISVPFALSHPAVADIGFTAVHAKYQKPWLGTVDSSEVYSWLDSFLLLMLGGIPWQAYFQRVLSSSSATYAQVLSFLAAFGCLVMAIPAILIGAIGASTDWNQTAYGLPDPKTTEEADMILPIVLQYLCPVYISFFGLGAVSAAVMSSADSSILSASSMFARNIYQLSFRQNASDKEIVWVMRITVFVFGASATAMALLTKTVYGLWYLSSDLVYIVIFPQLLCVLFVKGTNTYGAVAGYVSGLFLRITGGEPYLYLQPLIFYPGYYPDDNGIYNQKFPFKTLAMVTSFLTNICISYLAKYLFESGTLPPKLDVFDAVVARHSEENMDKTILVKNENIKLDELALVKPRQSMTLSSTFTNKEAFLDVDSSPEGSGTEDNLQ

[4] = target: T2, High affinity choline transporter 1; experiment: human choline transporter blockers, potency – cell-based, 10-point CRC, membrane potential dye, dose response (AID 588401); assay type: functional;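 also: membrane potential dye fluorescence of choline-evoked depolarization via CHT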
[5] = target: Eukaryotic translation initiation factor 4E (Mus musculus, UniProt P63073); experiment: blockers of eIF4G binding by eIF4E – biochemical, TR-FRET, dose response (AID 855); assay type: functional;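 also: potency for disrupting eIF4E binding to eIF4GI seen as loss of FRET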
Mu-type opioid receptor = Mu-type opioid receptor (Homo sapiens, UniProt P35372); assay type: functional, cell-based;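 also: U2OS cells with beta-arrestin recruitment to OPRM1 by beta-gal complementation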
[6] = target: 5-hydroxytryptamine receptor 2A (Mus musculus, UniProt P35363); assay type: functional, cell-based;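 also: CHO-K1 cells with tagged receptor and beta-arrestin; agonist potency measured as compound-induced activation of the receptor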
[7] = bead-based luminescence quenchers, dual-tagged ARNT – biochemical, AlphaScreen, cherry-pick, artefact control for ARNT-TACC3 interaction inhibitor project, dose response (AID 651705); assay type: functional;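 also: AlphaScreen bead proximity signal that flags compounds interfering with the detection technology; potency reflects signal decrease which marks the compound as an assay artifact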
cells = assay type: functional
[8] = test system: Streptococcus sp. 'group A'; experiment: Streptococcus pyogenes SK(-)GAS viability under kanamycin – luminescence, BacTiterGlo, confirmation, counter-screen for streptokinase expression inhibitor project, dose response (AID 1900); assay type: functional, organism-based
Streptococcus = experiment: GAS UMAA2166 growth inhibition – luminescence, BacTiterGlo, counter-screen for streptokinase expression inhibitor project, dose response (AID 1915); assay type: functional, organism-based;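 also: potency for reduction of bacterial viability or growth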
[9] = microbe, parasite or virus in culture; assay type: functional; conditions: Mycobacterium tuberculosis
Streptokinase A = target: T3, Streptokinase A (Streptococcus pyogenes serotype M1, UniProt P10520); experiment: viability-normalized secreted streptokinase activity reduction – plasminogen activation absorbance, OD405, dose response (AID 1914); assay type: functional, Streptococcus pyogenes M1 GAS;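 also: secreted streptokinase activity via plasminogen activation per viability signal from cell pellet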
T3 sequence (P10520 whole entry): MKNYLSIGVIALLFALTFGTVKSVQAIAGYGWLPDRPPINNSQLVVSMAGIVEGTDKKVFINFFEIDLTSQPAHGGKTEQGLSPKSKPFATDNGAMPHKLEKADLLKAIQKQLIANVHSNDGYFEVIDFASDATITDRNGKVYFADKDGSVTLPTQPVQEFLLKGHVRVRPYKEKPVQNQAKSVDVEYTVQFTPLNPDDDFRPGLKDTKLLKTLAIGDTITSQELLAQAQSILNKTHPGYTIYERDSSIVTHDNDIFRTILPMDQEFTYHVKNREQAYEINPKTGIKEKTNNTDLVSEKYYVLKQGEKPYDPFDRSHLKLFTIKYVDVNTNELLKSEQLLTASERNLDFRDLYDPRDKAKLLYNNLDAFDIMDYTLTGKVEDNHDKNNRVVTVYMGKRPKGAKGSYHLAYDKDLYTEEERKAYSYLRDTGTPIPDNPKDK

[10] = target: Fructose-bisphosphate aldolase (Mycobacterium tuberculosis, UniProt P9WQA3); experiment: Fluorescence-based biochemical high throughput dose response assay for inhibitors of the fructose-bisphosphate aldolase (FBA) of M. tuberculosis.; assay type: functional
[11] = viability of uninfected HEp-2 cells – cell-based, HTS, cytotoxicity control for RSV inhibitor project, dose response (AID 2410); assay type: functional; conditions: human respiratory syncytial virus
Vero = experiment: cells; assay type: functional; conditions: Chlorocebus sabaeus
[12] = target: T4, Ubiquitin-conjugating enzyme E2 N (Homo sapiens, UniProt P61088); assay type: functional;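 also: Dose-response confirmation in a TR-FRET assay detecting UBC13-driven polyubiquitin chain formation, inhibition measured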
T4 sequence (P61088 whole entry): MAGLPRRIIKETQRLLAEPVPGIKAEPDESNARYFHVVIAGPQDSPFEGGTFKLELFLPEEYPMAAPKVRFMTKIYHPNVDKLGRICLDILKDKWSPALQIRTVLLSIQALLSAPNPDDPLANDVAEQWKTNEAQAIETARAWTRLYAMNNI

[13] = viability loss of HPDE-C7K cells – cell-based, fluorescence, HTS, primary screen (AID 431); assay type: functional; conditions: Homo sapiens
[14] = Luminescence Cell-Based Dose Retest to Confirm Inhibitors of Cancer Stem Cells. [Related pubchem assays (depositor defined):AID2717, AID2721]; assay type: functional; conditions: Homo sapiens
P388 = experiment: cells; assay type: functional; conditions: Mus musculus
SN12K1 = experiment: cells; assay type: functional; conditions: Homo sapiens
[15] = target: Nuclear receptor subfamily 5 group A member 2 (Homo sapiens, UniProt O00482); assay type: functional, cell-based;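 also: HEK293T cells transfected with LRH-1 and a StAR promoter luciferase reporter; potency for inhibitors that lower LRH-1 driven reporter light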
Steroidogenic factor 1 = Steroidogenic factor 1 (Homo sapiens, UniProt Q13285); experiment: Counterscreen for inverse agonists of the liver receptor homolog-1 (LRH-1; NR5A2): Luminescence-based cell-based high throughput dose response assay to identify inverse agonists of the Steroidogenic Factor 1 Nuclear Receptor (SF1; NR5A1).; assay type: functional
[16] = nonselective StAR promoter luciferase inhibitors – cell-based, luminescence, luciferase reporter, counter-screen for LRH-1 inverse agonist project, dose response (AID 651969); assay type: functional
[17] = target: Adenosylmethionine-8-amino-7-oxononanoate aminotransferase (Mycobacterium tuberculosis, UniProt P9WQ81); experiment: Mycobacterium tuberculosis BioA enzyme inhibitor Measured in Biochemical System Using Plate Reader - 2163-02_Inhibitor_Dose_CherryPick_Activity.; assay type: functional, Mycobacterium tuberculosis UT205
P388/ADR = experiment: cells; assay type: functional; conditions: Mus musculus
[18] = non-specific 3'UTR reporter inhibition in Clone20-Shn3RL – cell-based, Renilla luciferase, cherry-picked, counter-screen for Shn3 inhibitor project, dose response (AID 624133); assay type: functional
[19] = loss of viability in HepG2 cells – cell-based, CellTiter-Glo, cherry-picked, cytotoxicity control for Shn3 inhibitor project, dose response (AID 624134); assay type: functional
[20] = target: Heat shock protein HSP 90-alpha (Homo sapiens, UniProt P07900); assay type: functional, organism-based
[21] = reduction of Shn3 3'UTR-driven luciferase in osteoblasts – cell-based, Clone20 osteoblasts, firefly luciferase, cherry-picked, dose response (AID 624132); assay type: functional;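 also: firefly luciferase luminescence from reporter carrying the Shn3 3'UTR in osteoblasts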

Chain of Phospholipase A2 (P04054 whole entry): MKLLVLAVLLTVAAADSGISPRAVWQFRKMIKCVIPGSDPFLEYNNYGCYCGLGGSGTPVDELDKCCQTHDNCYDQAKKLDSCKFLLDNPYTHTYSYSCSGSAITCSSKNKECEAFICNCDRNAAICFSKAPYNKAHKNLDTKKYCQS
Chain of Adenosylmethionine-8-amino-7-oxononanoate aminotransferase (P9WQ81 whole entry): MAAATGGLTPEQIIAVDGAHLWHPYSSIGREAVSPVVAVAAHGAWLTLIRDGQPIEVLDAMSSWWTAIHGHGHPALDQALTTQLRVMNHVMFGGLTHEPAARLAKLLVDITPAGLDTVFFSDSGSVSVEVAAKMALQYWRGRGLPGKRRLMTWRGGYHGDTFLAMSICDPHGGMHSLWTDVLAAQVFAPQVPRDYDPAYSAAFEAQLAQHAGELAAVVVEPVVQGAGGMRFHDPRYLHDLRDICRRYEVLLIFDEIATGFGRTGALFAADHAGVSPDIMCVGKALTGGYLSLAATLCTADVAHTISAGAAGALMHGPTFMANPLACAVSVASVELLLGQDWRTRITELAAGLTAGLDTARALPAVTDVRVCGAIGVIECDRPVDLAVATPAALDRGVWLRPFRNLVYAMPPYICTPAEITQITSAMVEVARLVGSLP
Chain of Steroidogenic factor 1 (Q13285 whole entry): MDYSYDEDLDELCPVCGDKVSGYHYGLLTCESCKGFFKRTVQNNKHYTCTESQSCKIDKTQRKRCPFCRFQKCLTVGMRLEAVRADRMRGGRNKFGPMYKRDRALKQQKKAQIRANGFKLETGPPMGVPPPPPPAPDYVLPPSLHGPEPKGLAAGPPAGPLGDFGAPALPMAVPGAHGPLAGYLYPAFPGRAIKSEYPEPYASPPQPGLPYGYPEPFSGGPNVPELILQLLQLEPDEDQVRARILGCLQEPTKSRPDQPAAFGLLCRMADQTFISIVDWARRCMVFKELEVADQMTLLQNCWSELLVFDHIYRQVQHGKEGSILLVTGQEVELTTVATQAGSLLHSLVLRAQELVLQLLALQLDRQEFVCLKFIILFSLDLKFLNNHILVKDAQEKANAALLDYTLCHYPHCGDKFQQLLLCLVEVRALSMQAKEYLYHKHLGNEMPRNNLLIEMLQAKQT
Chain of Fructose-bisphosphate aldolase (P9WQA3 whole entry): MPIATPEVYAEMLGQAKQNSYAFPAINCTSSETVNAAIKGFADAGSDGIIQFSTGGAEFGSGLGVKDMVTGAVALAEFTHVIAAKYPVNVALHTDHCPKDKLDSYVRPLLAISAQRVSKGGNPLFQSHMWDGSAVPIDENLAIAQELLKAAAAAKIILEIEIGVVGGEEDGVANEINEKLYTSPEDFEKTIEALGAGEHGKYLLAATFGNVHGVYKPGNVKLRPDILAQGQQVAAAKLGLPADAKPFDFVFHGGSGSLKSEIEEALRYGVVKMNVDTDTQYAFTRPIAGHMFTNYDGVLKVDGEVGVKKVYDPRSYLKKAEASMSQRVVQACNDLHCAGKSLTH
Chain of Mu-type opioid receptor (P35372 whole entry): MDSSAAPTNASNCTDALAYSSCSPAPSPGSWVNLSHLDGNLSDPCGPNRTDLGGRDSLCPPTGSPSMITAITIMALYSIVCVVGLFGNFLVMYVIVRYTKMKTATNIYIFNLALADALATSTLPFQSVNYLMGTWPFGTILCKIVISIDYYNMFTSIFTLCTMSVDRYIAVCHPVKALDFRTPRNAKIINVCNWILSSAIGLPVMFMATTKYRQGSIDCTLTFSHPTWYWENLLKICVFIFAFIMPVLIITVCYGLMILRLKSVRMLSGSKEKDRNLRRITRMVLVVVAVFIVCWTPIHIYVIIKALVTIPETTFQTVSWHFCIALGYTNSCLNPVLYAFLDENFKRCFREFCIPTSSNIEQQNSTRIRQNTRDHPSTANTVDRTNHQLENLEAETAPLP
Chain of Eukaryotic translation initiation factor 4E (P63073 whole entry): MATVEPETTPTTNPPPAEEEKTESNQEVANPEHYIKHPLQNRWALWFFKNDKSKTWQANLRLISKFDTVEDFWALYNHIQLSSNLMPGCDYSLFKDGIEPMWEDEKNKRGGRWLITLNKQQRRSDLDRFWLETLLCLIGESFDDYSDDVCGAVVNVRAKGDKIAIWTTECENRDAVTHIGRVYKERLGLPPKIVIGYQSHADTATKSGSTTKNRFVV
Chain of Nuclear receptor subfamily 5 group A member 2 (O00482 whole entry): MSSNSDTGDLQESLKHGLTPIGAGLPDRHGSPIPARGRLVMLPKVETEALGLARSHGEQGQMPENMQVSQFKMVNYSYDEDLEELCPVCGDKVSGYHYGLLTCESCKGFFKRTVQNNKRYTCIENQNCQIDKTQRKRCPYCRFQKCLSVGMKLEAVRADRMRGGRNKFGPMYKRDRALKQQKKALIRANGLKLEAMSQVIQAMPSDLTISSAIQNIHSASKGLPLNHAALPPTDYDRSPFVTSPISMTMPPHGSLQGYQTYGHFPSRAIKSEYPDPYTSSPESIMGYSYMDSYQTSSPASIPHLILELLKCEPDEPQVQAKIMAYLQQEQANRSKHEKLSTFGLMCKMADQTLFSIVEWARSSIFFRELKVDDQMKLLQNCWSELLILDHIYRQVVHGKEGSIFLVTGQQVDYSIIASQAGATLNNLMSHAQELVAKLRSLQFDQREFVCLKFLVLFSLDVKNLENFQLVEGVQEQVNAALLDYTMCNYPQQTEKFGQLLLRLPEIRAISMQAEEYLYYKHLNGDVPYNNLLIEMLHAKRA
Chain of 5-hydroxytryptamine receptor 2A (P35363 whole entry): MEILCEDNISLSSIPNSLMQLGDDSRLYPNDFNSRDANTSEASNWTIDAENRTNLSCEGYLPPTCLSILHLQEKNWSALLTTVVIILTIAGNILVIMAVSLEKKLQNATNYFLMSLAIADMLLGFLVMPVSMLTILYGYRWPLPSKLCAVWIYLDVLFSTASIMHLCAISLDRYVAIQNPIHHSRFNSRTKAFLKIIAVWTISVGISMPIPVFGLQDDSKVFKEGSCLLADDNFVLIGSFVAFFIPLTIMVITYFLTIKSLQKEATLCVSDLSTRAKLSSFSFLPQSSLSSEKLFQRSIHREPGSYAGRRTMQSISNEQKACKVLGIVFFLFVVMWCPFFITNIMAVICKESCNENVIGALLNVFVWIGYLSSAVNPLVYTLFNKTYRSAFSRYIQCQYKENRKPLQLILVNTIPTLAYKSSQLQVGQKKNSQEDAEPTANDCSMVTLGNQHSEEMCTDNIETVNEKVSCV

SMILES: O=C(Nc1ccccc1N1CCN(c2ccccc2)CC1)c1ccccc1
- IC50 (Cysteine protease ATG4B): 9.27 µM (active)
- IC50 (Phospholipase A2): 6.48 µM (active)

SMILES: CCOCCOc1cccc(C(=O)NC(c2ccccc2)c2ccccc2)c1
- EC50 [1]: 10.3 µM (inactive)
- IC50 [2]: 10 µM (inactive)

SMILES: Cc1noc(C)c1COc1ccc(C(=O)OCC(=O)NCc2ccccc2Cl)cc1
- IC50 (Cysteine protease ATG4B): 22.5 µM (inactive)
- IC50 (Phospholipase A2): 6.59 µM (active)

SMILES: O=c1[nH]ncc(N2CCCC2)c1Cl
- IC50 [3]: 8.71 µM (active)
- IC50 [4]: 7.51 µM (active)
- IC50 [5]: 50 µM (inactive)

SMILES: CCCN[C@H]1CCc2nc(N)sc2C1
- EC50 (Mu-type opioid receptor): 92.5 µM (inactive)
- EC50 [6]: 0.00651 µM (active)

SMILES: Cc1c(Cl)cccc1-c1ccc(CNCc2ccccn2)o1
- AC50 [7]: 87.3 µM (active)
- IC50 (cells): 0.55 µM (active)
- EC50 [8]: 13 µM (active)
- EC50 (Streptococcus): 70.2 µM (active)
- CC50 [9]: > 40 µM (active)
- EC50 (Streptokinase A): > 150 µM (not active)

SMILES: Cc1cc(=O)oc2cc(OCCc3ccccc3)ccc12
- IC50 [10]: 1.35 µM (active)
- CC50 [11]: 35.1 µM (active)
- CC50 (Vero): > 25 µM (active)

SMILES: CCCCc1oc2ccccc2c1C(=O)c1cc(I)c(OCCN(CC)CC)c(I)c1 [AMIODARONE HYDROCHLORIDE]
- IC50 [12]: > 20 µM (inactive)
- EC50 [13]: 7.82 µM (active)
- AC50 [14]: 4.87 µM (active)
- GI50 (P388): 5.06 µM (inactive)
- GI50 (SN12K1): 3.77 µM (inactive)

SMILES: O=C(COc1ccc2c3c(c(=O)oc2c1)CCCC3)NCCN1CCOCC1
- IC50 [15]: 35.8 µM (inactive)
- IC50 (Steroidogenic factor 1): 17 µM (inactive)
- IC50 [16]: 35.8 µM (inactive)

SMILES: C[C@@H](C(=O)N1CCN(Cc2ccc3c(c2)OCO3)CC1)n1nnc2ccccc2c1=O
- AC50 [17]: 4.11 µM (active)

SMILES: CCC(Sc1nc2ccsc2c(=O)n1Cc1ccc(C(=O)O)cc1)C(=O)Nc1cccc(OC)c1 (configuration not stated)
- AC50 [17]: 4.08 µM (active)

SMILES: CCCCCCCCOC(=O)c1cc([N+](=O)[O-])c(Sc2[nH]cnc3ncnc2-3)c([N+](=O)[O-])c1
- GI50 (P388/ADR): 0.152 µM (active)
- AC50 [18]: 10.6 µM (active)
- AC50 [19]: 11.5 µM (active)
- AC50 [20]: 2.18 µM (active)
- GI50 (P388): 0.184 µM (active)
- AC50 [21]: 2.81 µM (active)
- GI50 (SN12K1): 0.912 µM (active)
